Reference: ChEMBL document CHEMBL1773056 (Bioorg Med Chem Lett, 2011)

Key:
[1] = biological target: 5-hydroxytryptamine receptor 2A (Homo sapiens, UniProt P28223)
Description: Binding affinity to human 5HT2A receptor

[2] = biological target: T1, 5-hydroxytryptamine receptor 1A (Homo sapiens, UniProt P08908); experiment: biochemical; type: cell-based, HeLa
T1 sequence (P08908 whole entry): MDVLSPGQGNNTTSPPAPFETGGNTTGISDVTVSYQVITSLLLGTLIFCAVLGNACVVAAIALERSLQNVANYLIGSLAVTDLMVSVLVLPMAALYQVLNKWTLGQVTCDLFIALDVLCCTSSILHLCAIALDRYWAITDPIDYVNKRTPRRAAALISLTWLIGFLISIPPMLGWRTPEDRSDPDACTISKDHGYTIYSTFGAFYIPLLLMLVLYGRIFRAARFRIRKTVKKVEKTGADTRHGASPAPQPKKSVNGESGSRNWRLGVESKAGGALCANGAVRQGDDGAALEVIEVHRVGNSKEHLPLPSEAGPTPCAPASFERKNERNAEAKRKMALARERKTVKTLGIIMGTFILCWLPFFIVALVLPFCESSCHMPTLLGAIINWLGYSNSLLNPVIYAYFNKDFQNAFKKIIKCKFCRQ
Description: Displacement of [3H]-8-OH-DPAT from human 5HT1A receptor expressed in HeLa cells

in vivo [3] = conditions: rat, po
Description: Oral bioavailability in rat

D(2) dopamine receptor = D(2) dopamine receptor (Homo sapiens, UniProt P14416); experiment: biochemical; type: cell-based, CHO
Sequence of D(2) dopamine receptor (P14416 whole entry): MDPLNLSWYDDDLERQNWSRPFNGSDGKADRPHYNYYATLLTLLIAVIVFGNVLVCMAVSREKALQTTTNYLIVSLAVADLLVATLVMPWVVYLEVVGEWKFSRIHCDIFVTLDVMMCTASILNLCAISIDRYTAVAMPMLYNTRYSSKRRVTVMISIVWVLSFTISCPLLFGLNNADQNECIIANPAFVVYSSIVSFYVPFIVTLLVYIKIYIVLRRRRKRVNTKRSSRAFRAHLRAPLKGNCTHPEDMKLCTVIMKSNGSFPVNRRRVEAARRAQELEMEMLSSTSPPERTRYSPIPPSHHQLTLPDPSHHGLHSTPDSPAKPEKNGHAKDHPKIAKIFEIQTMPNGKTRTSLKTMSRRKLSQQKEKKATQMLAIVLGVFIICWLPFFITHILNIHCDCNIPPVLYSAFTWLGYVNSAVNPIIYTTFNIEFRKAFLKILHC
Description: Displacement of [3H]Spiperone from human dopamine D2L receptor expressed in CHO cells

Mus musculus [4] = species on record: Mus musculus; type: functional, Brain
Description: In vivo intrinsic activity at D2 receptor in sc dosed mouse brain assessed as inhibition of gamma-butyrolactone-induced increase in DOPA synthesis

Mus musculus [5] = species on record: Mus musculus; conditions: in vivo
Description: Induction of catalepsy in mouse

Mus musculus [6] = species on record: Mus musculus; experiment: animal or person; conditions: po, read-out: MED
Description: Antipsychotic activity in po dosed mouse assessed as inhibition of spontaneous locomotor activity

Mus musculus [7] = species on record: Mus musculus; type: functional, Brain; remark: listed apart in the source
Description: In vivo intrinsic activity at D2 receptor in po dosed mouse brain assessed as inhibition of gamma-butyrolactone-induced increase in DOPA synthesis

Rattus norvegicus [8] = species on record: Rattus norvegicus; type: functional
Rattus norvegicus [9] = species on record: Rattus norvegicus; experiment: animal or person; type: functional; conditions: po
Rattus norvegicus [10] = species on record: Rattus norvegicus; experiment: animal or person; type: functional; conditions: po; remark: listed apart in the source
in vivo [11] = conditions: rat, po, 3 mg/kg
in vivo [12] = conditions: rhesus monkey, po, 3 mg/kg
in vivo [13] = conditions: rat, po, 3 mg/kg; remark: listed apart in the source
in vivo [14] = conditions: rhesus monkey, po, 3 mg/kg; remark: listed apart in the source
in vivo [15] = conditions: rat, iv, 1 mg/kg
in vivo [16] = conditions: rhesus monkey, iv, 1 mg/kg
in vivo [17] = conditions: rat, iv, 1 mg/kg; remark: listed apart in the source
Description: Volume of distribution at steady state in rat at 1 mg/kg, iv and 3 mg/kg, po

in vivo [18] = conditions: rhesus monkey, iv, 1 mg/kg; remark: listed apart in the source
Description: Volume of distribution at steady state in rhesus monkey at 1 mg/kg, iv and 3 mg/kg, po

in vivo [19] = conditions: rat, iv, 1 mg/kg; remark: listed apart in the source
Description: Half life in rat at 1 mg/kg, iv

in vivo [20] = conditions: rhesus monkey, iv, 1 mg/kg; remark: listed apart in the source
Description: Half life in rhesus monkey at 1 mg/kg, iv

in vivo [21] = conditions: rat, po, 3 mg/kg; remark: listed apart in the source
in vivo [22] = conditions: rhesus monkey, po, 3 mg/kg; remark: listed apart in the source

Sequence of 5-hydroxytryptamine receptor 2A (P28223 whole entry): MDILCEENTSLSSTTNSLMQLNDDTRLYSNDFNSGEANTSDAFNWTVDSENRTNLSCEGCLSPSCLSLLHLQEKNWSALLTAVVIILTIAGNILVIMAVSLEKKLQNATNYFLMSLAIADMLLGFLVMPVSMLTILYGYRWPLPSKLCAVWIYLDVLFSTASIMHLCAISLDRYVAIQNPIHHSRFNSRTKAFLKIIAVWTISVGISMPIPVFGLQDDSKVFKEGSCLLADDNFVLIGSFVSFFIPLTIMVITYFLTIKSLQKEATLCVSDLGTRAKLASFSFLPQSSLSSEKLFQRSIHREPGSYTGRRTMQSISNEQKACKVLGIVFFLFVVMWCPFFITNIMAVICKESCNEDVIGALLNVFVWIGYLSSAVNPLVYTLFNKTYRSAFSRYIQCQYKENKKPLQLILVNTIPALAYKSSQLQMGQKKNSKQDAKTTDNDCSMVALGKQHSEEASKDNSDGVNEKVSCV

## O=C1CCc2ccc(CCCCCN3CCN(c4cccc(Cl)c4Cl)CC3)nc2N1
[1]
  Ki: 0.79 nM
[2]
  Ki: 11.4 nM
In vivo [3]
  bioavailability: 6%

## O=C1CCc2ccc(OCCCCN3CCN(c4cccc(Cl)c4Cl)CC3)nc2N1
[1]
  Ki: 0.13 nM
[2]
  Ki: 17.7 nM
In vivo [3]
  bioavailability: 23%

## O=c1ccc2ccc(OCCCCN3CCN(c4cccc(Cl)c4Cl)CC3)nc2[nH]1
[1]
  Ki: 1.6 nM
[2]
  Ki: 14 nM

## O=c1ccc2cnc(OCCCCN3CCN(c4cccc(Cl)c4Cl)CC3)cc2[nH]1
[1]
  Ki: 2.9 nM
[2]
  Ki: 40.7 nM

## O=c1ccc2cnc(OCCCCN3CCN(c4cccc(Cl)c4Cl)CC3)nc2[nH]1
[1]
  Ki: 3.2 nM
[2]
  Ki: 52.7 nM

## O=C1CCc2ccc(OCCCCN3CCN(c4ccccc4Cl)CC3)nc2N1
[1]
  Ki: 15.9 nM
[2]
  Ki: 4.6 nM

## O=C1CCc2ccc(OCCCCN3CCN(c4cccc(F)c4Cl)CC3)nc2N1
[1]
  Ki: 31.2 nM
[2]
  Ki: 1.7 nM

## Cc1cccc(N2CCN(CCCCOc3ccc4c(n3)NC(=O)CC4)CC2)c1Cl
[1]
  Ki: 0.5 nM

## Cc1ccccc1N1CCN(CCCCOc2ccc3c(n2)NC(=O)CC3)CC1
[1]
  Ki: 50.9 nM

## Cc1cccc(N2CCN(CCCCOc3ccc4c(n3)NC(=O)CC4)CC2)c1C
[1]
  Ki: 0.35 nM

## Cc1c(Cl)cccc1N1CCN(CCCCOc2ccc3c(n2)NC(=O)CC3)CC1
[1]
  Ki: 1.5 nM

## O=C1CCc2ccc(OCCCCN3CCN(c4cccc(Cl)c4F)CC3)nc2N1
[1]
  Ki: 10.4 nM
[2]
  Ki: 1.2 nM

## O=C1CCc2ccc(OCCCCN3CCN(c4cccc(C(F)(F)F)c4Cl)CC3)nc2N1
[1]
  Ki: 12 nM

## O=C1CCc2ccc(OCCCCN3CCN(c4cccc(Cl)c4C(F)(F)F)CC3)nc2N1
D(2) dopamine receptor
  Ki: 3 nM
[1]
  Ki: 1.4 nM
[2]
  Ki: 3.5 nM

## O=C1CCc2ccc(OCCCCN3CCN(c4cccc5c4CCC5)CC3)nc2N1
[1]
  Ki: 0.16 nM
[2]
  Ki: 6.3 nM

## O=C1CCc2ccc(OCCCCN3CCN(c4cccc5c4CCCC5)CC3)nc2N1
[1]
  Ki: 0.09 nM
[2]
  Ki: 28 nM

## O=C1CCc2ccc(OCCCCN3CCN(c4cccc5c4CCCO5)CC3)nc2N1
D(2) dopamine receptor
  Ki: 1 nM
[1]
  Ki: 1.3 nM
[2]
  Ki: 0.78 nM

## O=C1CCc2ccc(OCCCCN3CCN(c4cccc5c4OCCC5)CC3)nc2N1
D(2) dopamine receptor
  Ki: 0.71 nM
[1]
  Ki: 0.19 nM
[2]
  Ki: 1.1 nM

## O=C1CCc2ccc(OCCCCN3CCN(c4c(F)ccc5ccccc45)CC3)nc2N1
[1]
  Ki: 6.7 nM
[2]
  Ki: 0.84 nM

## O=C1CCc2ccc(OCCCCN3CCN(c4cc(F)cc5ccccc45)CC3)nc2N1
[1]
  Ki: 1.9 nM
[2]
  Ki: 3.3 nM

## O=C1CCc2ccc(OCCCCN3CCN(c4ccc(F)c5ccccc45)CC3)nc2N1
[1]
  Ki: 11.7 nM

## O=C1CCc2ccc(OCCCCN3CCN(c4cccc5c(F)cccc45)CC3)nc2N1
[1]
  Ki: 3.3 nM
[2]
  Ki: 3 nM

## O=C1CCc2ccc(OCCCCN3CCN(c4cccc5cc(F)ccc45)CC3)nc2N1
[1]
  Ki: 3.5 nM
[2]
  Ki: 1.2 nM

## O=C1CCc2ccc(OCCCCN3CCN(c4cccc5ccc(F)cc45)CC3)nc2N1
D(2) dopamine receptor
  Ki: 1.2 nM
[1]
  Ki: 0.28 nM
[2]
  Ki: 1.1 nM

## O=C1CCc2ccc(OCCCCN3CCN(c4cccc5cccc(F)c45)CC3)nc2N1
D(2) dopamine receptor
  Ki: 1.7 nM
[1]
  Ki: 0.67 nM
[2]
  Ki: 0.77 nM

## O=c1ccc2ccc(OCCCCN3CCN(c4cccc5ccccc45)CC3)nc2[nH]1
Mus musculus [4]
  inhibition (INH): 45%
Mus musculus [5]
  MED: > 30 mg/kg
Mus musculus [6]
  minimal effective dose: 1 mg/kg

## O=C1CCc2ccc(OCCCCN3CCN(c4cccc5ccccc45)CC3)nc2N1 [PF-00217830]
[1]
  Ki: 0.14 nM
[2]
  Ki: 3.7 nM
Mus musculus [7]
  inhibition (INH): 46%
Rattus norvegicus [8]
  inhibition (INH): 78%
Rattus norvegicus [9]
  inhibition in vivo at 0.3 mg/kg: 31%
Rattus norvegicus [10]
  inhibition in vivo at 1 mg/kg: 78%
Mus musculus [5]
  MED: > 10 mg/kg
In vivo [11]
  Cmax: 202 ng/mL
In vivo [12]
  Cmax: 96 ng/mL
In vivo [13]
  Tmax: 1.2 h
In vivo [14]
  Tmax: 5 h
In vivo [15]
  clearance: 14.9 mL/min/kg
In vivo [16]
  clearance: 5.8 mL/min/kg
In vivo [17]
  Vd: 1.1 L/kg
In vivo [18]
  Vd: 2.6 L/kg
In vivo [19]
  half-life: 6.8 h
In vivo [20]
  half-life: 13.6 h
In vivo [21]
  bioavailability: 19.2%
In vivo [22]
  bioavailability: 20.5%
Mus musculus [6]
  minimal effective dose: 0.3 mg/kg
